Reference: the supplement of paper PMC13380429

Columns and labels:
Conditions in all cases: 72 h
Caco-2 [1] = test: cell viability relative to DMSO; higher = less toxic
Calu-3 [2] = test: as above
HepG2 [3] = test: as above
U2OS [4] = test: as above
Vero E6 [5] = test: as above
Caco-2 [6] = test: relative viability EC50 (midpoint between 100% and the lowest measured viability); higher = less toxic
Calu-3 [7] = test: as above
HepG2 [8] = test: as above
U2OS [9] = test: as above
Vero E6 [10] = test: as above
Caco-2 [11] = test: drug sensitivity score (DSS) for viability; higher = more toxic; extreme values may be limits of the assay
Calu-3 [12] = test: as above
HepG2 [13] = test: as above
U2OS [14] = test: as above
Vero E6 [15] = test: as above

SMILES | cell viability (Caco-2 [1]; 1 nM) [%] | cell viability (Caco-2 [1]; 10 nM) [%] | cell viability (Caco-2 [1]; 100 nM) [%] | cell viability (Caco-2 [1]; 1000 nM) [%] | cell viability (Caco-2 [1]; 10000 nM) [%] | cell viability (Calu-3 [2]; 1 nM) [%] | cell viability (Calu-3 [2]; 10 nM) [%] | cell viability (Calu-3 [2]; 100 nM) [%] | cell viability (Calu-3 [2]; 1000 nM) [%] | cell viability (Calu-3 [2]; 10000 nM) [%] | cell viability (HepG2 [3]; 1 nM) [%] | cell viability (HepG2 [3]; 10 nM) [%] | cell viability (HepG2 [3]; 100 nM) [%] | cell viability (HepG2 [3]; 1000 nM) [%] | cell viability (HepG2 [3]; 10000 nM) [%] | cell viability (U2OS [4]; 1 nM) [%] | cell viability (U2OS [4]; 10 nM) [%] | cell viability (U2OS [4]; 100 nM) [%] | cell viability (U2OS [4]; 1000 nM) [%] | cell viability (U2OS [4]; 10000 nM) [%] | cell viability (Vero E6 [5]; 1 nM) [%] | cell viability (Vero E6 [5]; 10 nM) [%] | cell viability (Vero E6 [5]; 100 nM) [%] | cell viability (Vero E6 [5]; 1000 nM) [%] | cell viability (Vero E6 [5]; 10000 nM) [%] | relative viability EC50 (Caco-2 [6]) [µM] | relative viability EC50 (Calu-3 [7]) [µM] | relative viability EC50 (HepG2 [8]) [µM] | relative viability EC50 (U2OS [9]) [µM] | relative viability EC50 (Vero E6 [10]) [µM] | drug sensitivity score (Caco-2 [11]) | drug sensitivity score (Calu-3 [12]) | drug sensitivity score (HepG2 [13]) | drug sensitivity score (U2OS [14]) | drug sensitivity score (Vero E6 [15])
CNCC(O)c1ccc(O)c(O)c1 (racemic) [DL-Adrenaline] | 94.8 | 97.8 | 90.1 | 93.7 | 95.7 | 99.8 | 98.3 | 92.4 | 92.7 | 105 | 105 | 90.8 | 110 | 99.4 | 113 | 98.7 | 99.6 | 89 | 99.9 | 103 | 95.3 | 93.2 | 96.6 | 93.8 | 104 | > 10 | > 10 | > 10 | > 10 | > 10 | 0 | 0 | 0 | 0 | 0
OCc1cncc(F)c1 [5-fluoro-3-pyridyl-methanol] | 96 | 106 | 102 | 107 | 106 | 101 | 97.2 | 95.1 | 99.3 | 99.9 | 106 | 104 | 109 | 97.2 | 102 | 98.4 | 105 | 98.4 | 104 | 97.8 | 104 | 104 | 102 | 98.8 | 105 | > 10 | > 10 | > 10 | > 10 | > 10 | 0 | 0 | 0 | 0 | 0
O=C1CCCCCCCCCCCCCCO1 [oxacyclohexadecan-2-one] | 103 | 95.1 | 90 | 92.8 | 102 | 93.2 | 99.1 | 91.9 | 90 | 90.7 | 109 | 93.8 | 105 | 86 | 97.7 | 101 | 98.9 | 95.8 | 101 | 98 | 102 | 106 | 102 | 88.8 | 102 | > 10 | > 10 | > 10 | > 10 | > 10 | 0 | 0 | 0 | 0 | 0
CN1CCC(OC(c2ccccc2)c2ccccc2)CC1 [diphenylpyraline] | 96.1 | 96.3 | 97.6 | 102 | 94.6 | 97.3 | 90 | 98.7 | 94.9 | 95.1 | 89.7 | 98.2 | 90.6 | 103 | 111 | 103 | 95.7 | 102 | 95.1 | 98.6 | 94.6 | 106 | 97.1 | 104 | 109 | > 10 | > 10 | > 10 | > 10 | > 10 | 0 | 0 | 0 | 0 | 0
Cc1cc2nc3c(=O)[nH]c(=O)nc-3n(C)c2cc1C=O [Ro-08-2750] | 92.4 | 90 | 96.4 | 90.2 | 40 | 104 | 103 | 96 | 102 | 81.9 | 109 | 105 | 100 | 109 | 37.1 | 94.4 | 99.2 | 94.1 | 97.8 | 5.6 | 96.6 | 94.3 | 97.6 | 92.5 | 101 | 1.91 | > 10 | 3.78 | 3 | > 10 | 4.9 | 0.4 | 2.9 | 5.5 | 0
CCn1cc(C(=O)O)c(=O)c2cc(F)c(N3CCNC(C)C3)c(F)c21 (stereo not given) [lomefloxacin] | 107 | 103 | 108 | 91.2 | 104 | 95.8 | 96.8 | 108 | 80.1 | 94.6 | 114 | 111 | 120 | 102 | 94.1 | 105 | 98.3 | 102 | 104 | 104 | 105 | 103 | 98.8 | 106 | 95.3 | > 10 | > 10 | > 10 | > 10 | > 10 | 0 | 2.4 | 0 | 0 | 0
CO[C@H]1/C=C\C=C(/C)C(=O)NC2=CC(=O)C(NCCN(C)C)=C(C[C@@H](C)C[C@H](OC)[C@H](O)[C@@H](C)/C=C(\C)[C@@H]1OC(N)=O)C2=O [alvespimycin] | 98.4 | 90.3 | 82.9 | 39.7 | 1.6 | 97.3 | 88.4 | 67.1 | 36 | 20 | 106 | 57.9 | 1.3 | 1.4 | -0.1 | 97.7 | 91.3 | 30.8 | 2.5 | 1 | 93.4 | 98.4 | 94.9 | 37 | 10.1 | 0.544 | 0.148 | 0.0114 | 0.0542 | 0.587 | 13.9 | 16.4 | 36 | 26.6 | 12.8
C1CCN2C[C@@H]3C[C@@H](CN4CCCC[C@@H]34)[C@H]2C1 [sparteine-sulfate] | 84.7 | 87.4 | 81.4 | 78.5 | 105 | 114 | 104 | 108 | 116 | 86.7 | 94.9 | 101 | 102 | 89 | 102 | 105 | 99.7 | 104 | 97.6 | 100 | 97.4 | 98.7 | 82.1 | 93.6 | 105 | > 10 | > 10 | > 10 | > 10 | > 10 | 2.6 | 0 | 0 | 0 | 0
O=C(c1c2ccccc2cc2ccccc12)N1CCC(N2CCC[C@@H](C(=O)N3CCOCC3)C2)CC1 | 84.6 | 100 | 87.3 | 94.3 | 87.2 | 100 | 99.8 | 105 | 113 | 117 | 93.7 | 93.2 | 96.9 | 85.3 | 82.3 | 92.7 | 98.9 | 102 | 103 | 101 | 97.9 | 93.4 | 93.8 | 89.7 | 99.8 | > 10 | > 10 | > 10 | > 10 | > 10 | 0 | 0 | 1.1 | 0 | 0
O=C(O)[C@@H]1C[C@@H](O)CN1 [L-hydroxyproline] | 80.5 | 92.4 | 100 | 96.1 | 95.8 | 95 | 94.4 | 93.5 | 96.9 | 106 | 101 | 112 | 99.7 | 108 | 90.8 | 95.9 | 102 | 100 | 95.2 | 102 | 104 | 114 | 99.5 | 105 | 94.4 | > 10 | > 10 | > 10 | > 10 | > 10 | 0 | 0 | 0 | 0 | 0
O=C1c2cccc(O)c2C(=O)c2c(O)cccc21 [dantron] | 107 | 92.6 | 88.7 | 91.2 | 101 | 103 | 97.5 | 96.1 | 98.6 | 88.4 | 102 | 105 | 105 | 97.9 | 93.8 | 94.3 | 98.4 | 97.7 | 103 | 99.8 | 98.5 | 89.2 | 100 | 93.2 | 83.5 | > 10 | > 10 | > 10 | > 10 | > 10 | 0 | 0.1 | 0 | 0 | 0.2
NC1(C(=O)O)CC1 [ACPC] | 92.3 | 98.6 | 104 | 87.7 | 105 | 98.6 | 93.4 | 93.1 | 102 | 96.8 | 103 | 98.9 | 90 | 99.5 | 93.4 | 93.8 | 96 | 95.9 | 96.3 | 98.1 | 102 | 96.9 | 96.7 | 94.5 | 98.4 | > 10 | > 10 | > 10 | > 10 | > 10 | 0 | 0 | 0 | 0 | 0
C=C1CC[C@@]2(O)[C@H]3Cc4ccc(O)c5c4[C@@]2(CCN3CC2CC2)[C@H]1O5 [nalmefene] | 95.5 | 94.6 | 93.8 | 102 | 99.3 | 96.6 | 97.5 | 106 | 88.6 | 103 | 102 | 95.3 | 110 | 95.1 | 113 | 95.6 | 98.6 | 93.7 | 99.4 | 106 | 106 | 96.9 | 96.8 | 98.3 | 107 | > 10 | > 10 | > 10 | > 10 | > 10 | 0 | 0 | 0 | 0 | 0
